From PubChem BioAssay AID328 (DTP/NCI, 2004) come the findings set out here.

This assay has as its system BDF1 mice, P388 leukemia ip, median survival T/C. Nature of the assay: NCI In Vivo Anticancer Drug Screen. Data for tumor model P388 Leukemia (intraperitoneal) in B6D2F1 (BDF1) mice. The following applies: endpoint: median survival time, higher = longer survival. The method, then: The antitumor activity of compounds was measured in mice bearing transplantable tumors. Survival or tumor size were measured and the results are expressed as the measurement made in the treated group (T) divided by the measurement made in the vehicle treated control group (C). The tumor model used in this assay is P388 Leukemia (intraperitoneal) in B6D2F1 (BDF1) mice

The mark [1] stands for this setting: dose: 100.0 mg/kg/injection, schedule: Q01DX009 (ip), vehicle: Klucel (hydroxypropylcellulose) (HPC).
Where [2] appears, read: dose: 100.0 mg/kg/injection, schedule: Q04DX003 (ip), vehicle: Klucel (hydroxypropylcellulose) (HPC).
Where [3] appears, read: dose: 200.0 mg/kg/injection, schedule: Q01DX009 (ip), vehicle: Klucel (hydroxypropylcellulose) (HPC).
The mark [4] stands for this setting: dose: 200.0 mg/kg/injection, schedule: Q04DX003 (ip), vehicle: Klucel (hydroxypropylcellulose) (HPC).
The mark [5] stands for this setting: dose: 400.0 mg/kg/injection, schedule: Q04DX003 (ip), vehicle: Klucel (hydroxypropylcellulose) (HPC).
Where [6] appears, read: dose: 50.0 mg/kg/injection, schedule: Q01DX009 (ip), vehicle: saline with Tween-80.
The mark [7] stands for this setting: dose: 100.0 mg/kg/injection, schedule: Q01DX009 (ip), vehicle: saline with Tween-80.
The mark [8] stands for this setting: dose: 100.0 mg/kg/injection, schedule: Q04DX003 (ip), vehicle: saline with Tween-80.
Setting [9] is: dose: 200.0 mg/kg/injection, schedule: Q01DX009 (ip), vehicle: saline with Tween-80.
[10] abbreviates: dose: 100.0 mg/kg/injection, schedule: Q01DX001 (ip), vehicle: Klucel (hydroxypropylcellulose) (HPC).

Molecules are shown by their SMILES. Values joined by “and” are separate entries in the source; they are usually repeats but may differ in a detail not shown here. Identical values can stand only once. Inconclusive results and toxic doses are left out.

Consider `C/C(N=Nc1ccccc1)=N\Nc1cccc(C(F)(F)F)c1`, for which the T/C (dose: 50.0 mg/kg/injection, schedule: Q01DX009 (ip), vehicle: Klucel (hydroxypropylcellulose) (HPC)) was 100 % of control; the T/C under setting [1] is 105 % of control; the T/C under setting [2] is 104 % of control; the T/C under setting [3] was 100 % of control; the T/C under setting [4] was 104 % of control; the T/C under setting [5] is 108 % of control.
On to `Oc1ccccc1C=NCCN1CC1.Oc1ccccc1C=NCCN1CC1.[Cu]`, for which the T/C is, setting by setting: (dose: 6.25 mg/kg/injection, schedule: Q01DX001 (ip), vehicle: saline sonified) 104 % of control; (dose: 8.25 mg/kg/injection, schedule: Q01DX001 (ip), vehicle: saline) 104 % of control; (dose: 12.5 mg/kg/injection, schedule: Q01DX001 (ip), vehicle: saline) 112 % of control; (dose: 18.75 mg/kg/injection, schedule: Q01DX001 (ip), vehicle: saline) 124 % of control; (dose: 25.0 mg/kg/injection, schedule: Q01DX001 (ip), vehicle: saline sonified) 118 % of control.
With `Cc1nc(C)c(Br)s1`, the T/C by setting is: (dose: 25.0 mg/kg/injection, schedule: Q01DX009 (ip), vehicle: saline with Tween-80) 100 % of control; under setting [6], 100 % of control; under setting [7], 107 % of control.
Consider `c1ccc2c(c1)[nH]c1nc3ccncc3nc12`, for which the T/C is 90 % of control (dose: 50.0 mg/kg/injection, schedule: Q04DX003 (ip), vehicle: saline with Tween-80) and 95 % of control under setting [8].
In the case of `CC(C)c1cc(C(C)C)n2nc(N)nc2n1`, the T/C is 100 % of control under setting [7]; 95 % of control under setting [9]; 90 % of control (dose: 400.0 mg/kg/injection, schedule: Q01DX009 (ip), vehicle: saline with Tween-80).
In the case of `COc1cccc2c1C(=O)c1c(O)c3c(c(O)c1C2=O)C[C@@](O)(/C(C)=N\NC=O)C[C@@H]3OC1CC(N)C(O)C(C)O1` (stereo partly specified), the T/C (dose: 1.0 mg/kg/injection, schedule: Q01DX009 (ip), vehicle: saline) is 96 % of control; the T/C (dose: 2.0 mg/kg/injection, schedule: Q01DX009 (ip), vehicle: saline) was 107 % of control; the T/C (dose: 16.0 mg/kg/injection, schedule: Q01DX009 (ip), vehicle: saline) was 180 % of control.
For the compound `Cc1cc(Br)c2ccccc2c1N(CC(=O)O)S(=O)(=O)c1ccccc1`, the T/C was 100 % of control (dose: 100.0 mg/kg/injection, schedule: Q01DX001 (ip), vehicle: saline with Tween-80); 109 % of control (dose: 200.0 mg/kg/injection, schedule: Q01DX001 (ip), vehicle: saline with Tween-80); 109 % of control (dose: 400.0 mg/kg/injection, schedule: Q01DX001 (ip), vehicle: saline with Tween-80).
For `COC(=O)c1c(Cl)c(Cl)c(Cl)c(Cl)c1C(=O)O`, the T/C under setting [6] is 110 % of control.
For the compound `S=C1NC(c2ccccc2)NC(c2ccccc2)S1` (stereo unspecified), the T/C reads like this: under setting [10], 95 % of control; under setting [1], 111 % of control; under setting [2], 91 % of control and 100 % of control; (dose: 200.0 mg/kg/injection, schedule: Q01DX001 (ip), vehicle: Klucel (hydroxypropylcellulose) (HPC)) 95 % of control; under setting [3], 111 % of control; under setting [4], 91 % of control and 108 % of control. Further, the T/C (dose: 400.0 mg/kg/injection, schedule: Q01DX009 (ip), vehicle: Klucel (hydroxypropylcellulose) (HPC)) was 111 % of control; the T/C under setting [5] is 87 % of control and 108 % of control.
For the compound `Cc1ccc(C(CC(=O)O)CC(=O)O)c(O)c1`, the T/C runs as follows: (dose: 100.0 mg/kg/injection, schedule: Q01DX009 (ip), vehicle: gum acacia) 100 % of control; (dose: 100.0 mg/kg/injection, schedule: Q04DX003 (ip), vehicle: gum acacia) 111 % of control; (dose: 200.0 mg/kg/injection, schedule: Q01DX009 (ip), vehicle: gum acacia) 103 % of control; (dose: 200.0 mg/kg/injection, schedule: Q04DX003 (ip), vehicle: gum acacia) 103 % of control; (dose: 400.0 mg/kg/injection, schedule: Q01DX009 (ip), vehicle: gum acacia) 89 % of control; (dose: 400.0 mg/kg/injection, schedule: Q04DX003 (ip), vehicle: gum acacia) 88 % of control.
On to `CN1CC2([N+](=O)[O-])C=CCC([N+](=O)[O-])(C1)C2` (stereo unspecified), for which the T/C reads like this: (dose: 25.0 mg/kg/injection, schedule: Q01DX009 (ip), vehicle: water) 90 % of control; (dose: 50.0 mg/kg/injection, schedule: Q01DX009 (ip), vehicle: water) 115 % of control; (dose: 100.0 mg/kg/injection, schedule: Q01DX009 (ip), vehicle: water) 108 % of control; (dose: 200.0 mg/kg/injection, schedule: Q01DX009 (ip), vehicle: water) 99 % of control.
Consider `CCN(C(=O)Nc1cccc2ccccc12)c1ccccc1`, for which the T/C is, setting by setting: (dose: 50.0 mg/kg/injection, schedule: Q01DX001 (ip), vehicle: other) 95 % of control; (dose: 100.0 mg/kg/injection, schedule: Q01DX001 (ip), vehicle: other) 95 % of control; (dose: 200.0 mg/kg/injection, schedule: Q01DX001 (ip), vehicle: other) 100 % of control.
`C/C(=N/NC(=O)c1ccccc1)c1ccc(Cl)cc1Cl`: the T/C reads like this: (dose: 3.12 mg/kg/injection, schedule: Q04DX003 (ip), vehicle: Klucel (hydroxypropylcellulose) (HPC)) 110 % of control; (dose: 6.25 mg/kg/injection, schedule: Q04DX003 (ip), vehicle: Klucel (hydroxypropylcellulose) (HPC)) 105 % of control; (dose: 12.5 mg/kg/injection, schedule: Q04DX003 (ip), vehicle: Klucel (hydroxypropylcellulose) (HPC)) 100 % of control; (dose: 18.0 mg/kg/injection, schedule: Q01DX009 (ip), vehicle: Klucel (hydroxypropylcellulose) (HPC)) 100 % of control; (dose: 18.0 mg/kg/injection, schedule: Q04DX003 (ip), vehicle: Klucel (hydroxypropylcellulose) (HPC)) 100 % of control; (dose: 28.0 mg/kg/injection, schedule: Q01DX009 (ip), vehicle: Klucel (hydroxypropylcellulose) (HPC)) 104 % of control. Further, the T/C runs as follows: (dose: 28.0 mg/kg/injection, schedule: Q04DX003 (ip), vehicle: Klucel (hydroxypropylcellulose) (HPC)) 100 % of control; (dose: 40.0 mg/kg/injection, schedule: Q04DX003 (ip), vehicle: Klucel (hydroxypropylcellulose) (HPC)) 104 % of control; (dose: 60.0 mg/kg/injection, schedule: Q04DX003 (ip), vehicle: Klucel (hydroxypropylcellulose) (HPC)) 110 % of control; (dose: 90.0 mg/kg/injection, schedule: Q04DX003 (ip), vehicle: Klucel (hydroxypropylcellulose) (HPC)) 110 % of control.
With `CCOC(=O)C1C(=O)C(C(=O)Nc2ccccc2)C(=O)C(C(=O)OCC)C1c1ccc(O)cc1` (stereo unspecified), the T/C is 110 % of control and 90 % of control under setting [8]; 115 % of control (dose: 200.0 mg/kg/injection, schedule: Q04DX003 (ip), vehicle: saline with Tween-80); 110 % of control and 100 % of control (dose: 400.0 mg/kg/injection, schedule: Q04DX003 (ip), vehicle: saline with Tween-80).
As to `CCCCCCCCCCSCCSCCSCCCCCCCCCC`, the T/C is 100 % of control (dose: 25.0 mg/kg/injection, schedule: Q01DX001 (ip), vehicle: Klucel (hydroxypropylcellulose) (HPC)); 100 % of control (dose: 50.0 mg/kg/injection, schedule: Q01DX001 (ip), vehicle: Klucel (hydroxypropylcellulose) (HPC)); 100 % of control under setting [10].
Turning to `C(=C/c1nnc2ncccn12)/c1ccccc1`, the T/C runs as follows: under setting [6], 97 % of control; under setting [7], 94 % of control; under setting [9], 110 % of control.
